In data set [1] the target is T1, Bifunctional epoxide hydrolase 2 (Mus musculus, UniProt P34914).
T1 sequence (P34914 whole entry): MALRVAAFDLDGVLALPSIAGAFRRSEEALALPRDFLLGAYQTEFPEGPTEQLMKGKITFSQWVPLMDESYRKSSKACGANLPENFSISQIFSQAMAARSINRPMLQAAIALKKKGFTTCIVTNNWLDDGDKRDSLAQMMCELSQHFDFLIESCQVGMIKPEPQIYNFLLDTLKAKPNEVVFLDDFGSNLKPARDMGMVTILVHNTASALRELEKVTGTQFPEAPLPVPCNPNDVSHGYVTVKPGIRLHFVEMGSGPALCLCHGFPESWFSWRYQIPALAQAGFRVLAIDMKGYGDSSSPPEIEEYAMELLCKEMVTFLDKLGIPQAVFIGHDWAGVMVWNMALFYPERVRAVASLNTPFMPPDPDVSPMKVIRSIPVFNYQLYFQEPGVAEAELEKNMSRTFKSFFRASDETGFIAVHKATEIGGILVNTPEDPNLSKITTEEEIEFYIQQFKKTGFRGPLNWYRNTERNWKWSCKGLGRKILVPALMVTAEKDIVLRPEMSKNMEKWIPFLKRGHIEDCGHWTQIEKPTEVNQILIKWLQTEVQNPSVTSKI
Briefly: Inhibition of C57BL/6J mouse cortex sEH using 14,15-EET as substrate preincubated for 15 mins followed by substrate addition measured after 2 hrs by UPLC-MS/MS analysis.

The nature of data set [2]: Cytotoxicity against HEK293T cells incubated overnight by CCK8 assay. Particulars: human. A general note: Tetrazolium dyes change colour on reduction, which living cells bring about.
A short description of data set [3]: Cytotoxicity against human HepG2 cells incubated overnight by CCK8 assay.
Data set [4] in a line: in vivo. The note with it: BALB/c, mouse, plasma, po, 20 mg/kg.
Description: Cmax in BALB/c mouse plasma at 20 mg/kg, IG measured upto 24 hrs by LC-MS/MS analysis
The nature of data set [5]: in vivo. Particulars: BALB/c, mouse, liver, po, 20 mg/kg.
Description: Cmax in BALB/c mouse liver at 20 mg/kg, IG measured upto 24 hrs by LC-MS/MS analysis
A short description of data set [6]: in vivo. The note with it: BALB/c, mouse, plasma, po, 20 mg/kg. The source holds these as a separate data set.
Description: AUC (0 to 24 hrs) in BALB/c mouse plasma at 20 mg/kg, IG measured upto 24 hrs by LC-MS/MS analysis
A short description of data set [7]: in vivo. Particulars: BALB/c, mouse, liver/plasma, po, 20 mg/kg.
Description: Ratio of Cmax in BALB/c mouse liver to plasma at 20 mg/kg, IG measured upto 24 hrs by LC-MS/MS analysis
Data set [8] is described as follows: in vivo. The note with it: BALB/c, mouse, liver/plasma, po, 20 mg/kg. This is another data set of the same source.
Description: Ratio of AUC (0 to 24 hrs) in BALB/c mouse liver to plasma at 20 mg/kg, IG measured upto 24 hrs by LC-MS/MS analysis
Data set [9] deals with T2, Bifunctional epoxide hydrolase 2 (Homo sapiens, UniProt P34913).
T2 sequence (P34913 whole entry): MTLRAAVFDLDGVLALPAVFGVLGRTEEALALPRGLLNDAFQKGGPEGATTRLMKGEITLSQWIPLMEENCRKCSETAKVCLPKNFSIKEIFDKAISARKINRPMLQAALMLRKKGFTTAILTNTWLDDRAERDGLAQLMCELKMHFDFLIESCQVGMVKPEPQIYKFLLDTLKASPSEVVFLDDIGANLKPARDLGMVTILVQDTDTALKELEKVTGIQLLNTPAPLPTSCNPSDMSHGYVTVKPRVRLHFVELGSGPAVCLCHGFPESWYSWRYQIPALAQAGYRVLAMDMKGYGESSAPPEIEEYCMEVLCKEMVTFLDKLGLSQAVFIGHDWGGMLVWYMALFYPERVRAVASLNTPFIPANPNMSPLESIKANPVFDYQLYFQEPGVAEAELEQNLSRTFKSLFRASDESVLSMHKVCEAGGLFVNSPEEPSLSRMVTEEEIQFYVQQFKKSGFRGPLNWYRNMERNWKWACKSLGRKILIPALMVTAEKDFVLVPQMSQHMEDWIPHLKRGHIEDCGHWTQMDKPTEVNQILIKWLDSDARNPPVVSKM
Briefly: Inhibition of sEH (unknown origin) using PHOME as substrate incubated for 1 hr by fluorimetric assay.

The species named for data set [10] is Mus musculus. Briefly: animal or person. Particulars: BALB/c, po, 6 h, read-out: INH.
Description: Anti-inflammatory activity in BALB/c mouse model of Carrageenan-induced paw edema assessed as inhibition of edema at 20 mg/kg, IG measured upto 6 hrs relative to control
Data set [11] is filed under the species Mus musculus. Briefly: animal or person. The note with it: BALB/c, po, 1 h, read-out: INH.
Description: Anti-inflammatory activity in BALB/c mouse model of Carrageenan-induced paw edema assessed as inhibition of edema at 20 mg/kg, IG measured after 1 hr relative to control

Here are results for four molecules from ChEMBL document CHEMBL6092185, “Discovery of glycosidated glycyrrhetinic acid derivatives: Natural product-based soluble epoxide hydrolase inhibitors” (Eur J Med Chem, 2024).

Each structure is given as a SMILES string.

As a reminder, the IC50 is the point on the concentration scale where inhibition reaches its midpoint. Read a low IC50 as inhibition by little substance. In general, Cmax refers to the maximum level reached in the sampled fluid or tissue. As a reminder, the AUC(0-t) is the area under the concentration-time curve up to a stated or last time point. Higher therefore signals high exposure. As a reminder, the Kp is the ratio of the level in a tissue or fluid to that in plasma or blood. For `CC1(C)[C@@H](O[C@H]2O[C@H](CO)[C@@H](O)[C@H](O)[C@@H]2O)CC[C@]2(C)[C@H]3C(=O)C=C4[C@H]5C[C@@](C)(CNC(=O)NCC6CCOCC6)CC[C@]5(C)CC[C@@]4(C)[C@]3(C)CC[C@@H]12`, the results for the IC50 in data set [1], in [2] and in data set [3] were 0.121 µM, 46.6 µM and 17.6 µM, respectively. Also, the Cmax at 24 h in “in vivo [4]” stood at 194 ng/mL; in “in vivo [5]” it was 2140 ng/g. The AUC(0-t) at 24 h in “in vivo [6]” stood at 655 ng·h/mL. Besides, the Kp at 24 h in the data set “in vivo [7]” came out at 11; in “in vivo [8]”, 8.91.

Consider `C[C@H]1[C@H](C)CC[C@]2(C(=O)O)CC[C@]3(C)C(=CC[C@@H]4[C@@]5(C)CC[C@H](O)C(C)(C)[C@@H]5CC[C@]43C)[C@H]12` [URSOLIC ACID], for which the midpoint of inhibition in data set [9], the IC50, lay at 11.1 µM.

Consider `CC1(C)[C@@H](O[C@H]2OC[C@@H](O)[C@@H](O)[C@@H]2O)CC[C@]2(C)[C@H]3C(=O)C=C4[C@H]5C[C@@](C)(CNC(=O)NCC6CCOCC6)CC[C@]5(C)CC[C@@]4(C)[C@]3(C)CC[C@@H]12`, for which, in data set [1], the IC50 is 0.0861 µM. Besides, the inhibition in vivo at 20 mg/kg in the data set listed under Mus musculus [10] came to 37.4%.

As for `CCC(=O)N1CCC(CNC(=O)NC[C@@]2(C)CC[C@]3(C)CC[C@]4(C)C(=CC(=O)[C@@H]5[C@@]6(C)CC[C@H](O[C@H]7O[C@H](CO)[C@@H](O)[C@H](O)[C@@H]7O)C(C)(C)[C@@H]6CC[C@]54C)[C@@H]3C2)CC1`, the IC50 in data set [1] was found to be 0.182 µM. For the same molecule, the inhibition in vivo at 20 mg/kg in the data set filed under Mus musculus [11] was found to be 38.4%.
